Patent US9346798B2, “Dihydrobenzoxazine and tetrahydroquinoxaline sodium channel inhibitors” (AMGEN INC., priority 2012, dated 2016)

The compounds below were run against Nav 1.7 (Homo sapiens (Human), UniProt Q15858) (assay: Nav 1.7 in vitro PX assay, PatchXpress whole cell voltage clamp). Conditions: HEK293; values marked *; 4.9 μM; HEK 293 cells stably transfected with human Nav1.7; read-out: Nav 1.7 PX percent inhibition at 4.9 μM.
Type: cell-based
Experimental: Nav 1.7 In Vitro PX Assay
HEK 293 cells stably transfected with human Nav1.7 were recorded in whole cell voltage clamp mode with the PatchXpress automated electrophysiology system (Molecular Devices, LLC, Sunnyvale, Calif.). Compound effects were measured on a partially inactivated state of the sodium channel. Cells were clamped to a holding potential yielding 20 to 50% inactivation. To elicit sodium current, channels were activated by pulsing to −10 mV for 20 msec. This voltage protocol was repeated at a rate of 0.1 Hz throughout the experiment. A single concentration of test compound was applied to cells for a duration of 3 minutes. Peak sodium current was measured at the end of the compound addition period to determine percent inhibition. Three to five cells were tested per concentration, and IC50 curves were fitted to percent inhibition as a function of concentration.

Chain of Nav 1.7 (Q15858 whole entry): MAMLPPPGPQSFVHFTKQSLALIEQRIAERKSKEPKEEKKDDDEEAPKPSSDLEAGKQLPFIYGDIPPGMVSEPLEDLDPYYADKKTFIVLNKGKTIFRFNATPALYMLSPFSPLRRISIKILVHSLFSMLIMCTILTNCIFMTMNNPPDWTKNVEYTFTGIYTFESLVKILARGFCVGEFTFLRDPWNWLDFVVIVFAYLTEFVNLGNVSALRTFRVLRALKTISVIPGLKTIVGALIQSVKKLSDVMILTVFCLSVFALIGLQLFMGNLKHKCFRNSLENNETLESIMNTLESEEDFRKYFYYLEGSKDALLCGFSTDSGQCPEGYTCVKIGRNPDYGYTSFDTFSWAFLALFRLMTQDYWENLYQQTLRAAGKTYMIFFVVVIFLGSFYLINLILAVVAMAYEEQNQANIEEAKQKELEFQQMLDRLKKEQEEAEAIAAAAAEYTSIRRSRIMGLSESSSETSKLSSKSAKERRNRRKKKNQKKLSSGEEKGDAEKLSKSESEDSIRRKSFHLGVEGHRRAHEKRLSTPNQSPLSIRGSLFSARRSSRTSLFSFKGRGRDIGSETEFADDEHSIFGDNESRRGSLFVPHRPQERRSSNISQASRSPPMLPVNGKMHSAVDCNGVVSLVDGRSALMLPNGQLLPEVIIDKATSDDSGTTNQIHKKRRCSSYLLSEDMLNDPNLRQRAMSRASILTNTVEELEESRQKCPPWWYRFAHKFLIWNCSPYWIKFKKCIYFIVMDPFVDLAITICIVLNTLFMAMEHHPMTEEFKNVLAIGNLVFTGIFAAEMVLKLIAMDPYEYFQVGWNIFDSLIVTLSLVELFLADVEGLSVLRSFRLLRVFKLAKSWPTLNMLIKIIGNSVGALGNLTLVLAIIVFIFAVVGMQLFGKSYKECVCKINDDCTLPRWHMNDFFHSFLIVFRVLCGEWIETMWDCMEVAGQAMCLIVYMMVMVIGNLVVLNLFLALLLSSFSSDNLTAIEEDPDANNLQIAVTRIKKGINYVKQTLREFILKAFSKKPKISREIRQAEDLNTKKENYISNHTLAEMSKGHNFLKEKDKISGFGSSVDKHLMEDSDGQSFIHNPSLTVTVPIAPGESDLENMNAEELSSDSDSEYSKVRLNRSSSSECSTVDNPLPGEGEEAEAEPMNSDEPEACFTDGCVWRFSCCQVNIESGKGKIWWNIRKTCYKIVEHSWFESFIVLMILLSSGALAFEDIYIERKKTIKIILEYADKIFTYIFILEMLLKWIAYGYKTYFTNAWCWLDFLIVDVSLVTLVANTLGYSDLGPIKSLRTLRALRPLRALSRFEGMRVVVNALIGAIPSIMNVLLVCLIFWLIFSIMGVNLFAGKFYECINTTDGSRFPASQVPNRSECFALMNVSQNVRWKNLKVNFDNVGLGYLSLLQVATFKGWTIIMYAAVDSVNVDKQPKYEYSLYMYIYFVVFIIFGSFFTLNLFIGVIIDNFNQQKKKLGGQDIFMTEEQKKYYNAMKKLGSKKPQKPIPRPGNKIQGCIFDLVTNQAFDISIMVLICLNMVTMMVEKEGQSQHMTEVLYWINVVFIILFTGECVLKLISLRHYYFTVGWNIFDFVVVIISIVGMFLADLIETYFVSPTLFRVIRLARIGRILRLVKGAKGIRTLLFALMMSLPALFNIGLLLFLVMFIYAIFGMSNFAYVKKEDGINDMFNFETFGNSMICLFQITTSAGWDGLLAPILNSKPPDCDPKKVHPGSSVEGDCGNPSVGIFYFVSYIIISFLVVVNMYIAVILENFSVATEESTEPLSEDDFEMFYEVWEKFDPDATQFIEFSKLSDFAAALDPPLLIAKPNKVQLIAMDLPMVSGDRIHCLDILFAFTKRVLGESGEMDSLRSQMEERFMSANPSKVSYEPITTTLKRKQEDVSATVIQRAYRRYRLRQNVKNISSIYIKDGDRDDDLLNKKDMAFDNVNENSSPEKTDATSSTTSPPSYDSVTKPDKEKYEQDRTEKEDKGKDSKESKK

Row | inhibition at 4.9 µM [%] | Compound
1 | 27.8 | COCC1CN(c2ccc(Cl)cc2C#N)c2ccc(S(=O)(=O)Nc3nccs3)cc2O1 (stereo not shown) [Example 251, 4-(4-chloro-2-cyanophenyl)-2-(methoxymethyl)-N-(thiazol-2-yl)-3,4-dihydro-2H-benzo[b][1,4]oxazine-7-sulfonamide]
2 | 27 | CC(C)(O)COc1ccccc1N1CCOc2cc(S(=O)(=O)Nc3nccs3)ccc21 [Example 253, 4-(2-(2-hydroxy-2-methylpropoxy)phenyl)-N-(thiazol-2-yl)-3,4-dihydro-2H-benzo[b][1,4]oxazine-7-sulfonamide]

Same assay, conditions: HEK 293 cells stably transfected with human Nav1.7; partially inactivated state (20 to 50% inactivation)

Row | IC50 [nM] | Compound
3 | 457 | COc1cc(C(F)(F)F)ccc1N1C(=O)C(C)Oc2cc(S(=O)(=O)Nc3nccs3)ccc21 (racemic) [Example 263, (+/−)-4-(2-methoxy-4-(trifluoromethyl)phenyl)-2-methyl-3-oxo-N-(thiazol-2-yl)-3,4-dihydro-2H-benzo[b][1,4]oxazine-7-sulfonamide]
4 | 303 | COc1ccc(C#N)cc1N1CCOc2cc(S(=O)(=O)Nc3nccs3)ccc21 [Example 225, 4-(5-Cyano-2-Methoxyphenyl)-N-(Thiazol-2-Yl)-3,4-Dihydro-2H-Benzo[B][1,4]Oxazine-7-Sulfonamide]
5 | 33600 | CS(=O)(=O)c1ccccc1N1CCOc2cc(S(=O)(=O)Nc3nccs3)ccc21 [Example 230, 4-(2-(Methylsulfonyl)Phenyl)-N-(Thiazol-2-Yl)-3,4-Dihydro-2H-Benzo[B][1,4]Oxazine-7-Sulfonamide]
6 | 19800 | O=S(=O)(Nc1nccs1)c1ccc2c(c1)OCCN2c1ccccc1-c1cncnc1 [Example 231, 4-(2-(Pyrimidin-5-Yl)Phenyl)-N-(Thiazol-2-Yl)-3,4-Dihydro-2H-Benzo[B][1,4]Oxazine-7-Sulfonamide]
7 | 327 | COc1cc(Cl)ccc1N1C(=O)COc2cc(S(=O)(=O)Nc3nccs3)ccc21 [Example 233, 4-(4-Chloro-2-Methoxyphenyl)-3-Oxo-N-(Thiazol-2-Yl)-3,4-Dihydro-2H-Benzo[B][1,4]Oxazine-7-Sulfonamide]
8 | 1450 | N#Cc1cc(C(F)(F)F)ccc1N1C(=O)COc2cc(S(=O)(=O)Nc3nccs3)ccc21 [Example 234, 4-(2-Cyano-4-(Trifluoromethyl)Phenyl)-3-Oxo-N-(Thiazol-2-Yl)-3,4-Dihydro-2H-Benzo[B][1,4]Oxazine-7-Sulfonamide]
9 | 896 | COc1ccccc1N1C(=O)COc2cc(S(=O)(=O)Nc3nccs3)ccc21 [Example 235, 4-(2-Methoxyphenyl)-3-Oxo-N-(Thiazol-2-Yl)-3,4-Dihydro-2H-Benzo[B][1,4]Oxazine-7-Sulfonamide]
10 | 513 | COc1ccc(C(F)(F)F)cc1N1C(=O)COc2cc(S(=O)(=O)Nc3nccs3)ccc21 [Example 236, 4-(2-Methoxy-5-(Trifluoromethyl)Phenyl)-3-Oxo-N-(Thiazol-2-Yl)-3,4-Dihydro-2H-Benzo[B][1,4]Oxazine-7-Sulfonamide]
11 | 135 | COc1ccccc1N1CCOc2cc(S(=O)(=O)Nc3ncns3)ccc21 [Example 238, 4-(2-Methoxyphenyl)-N-(1,2,4-Thiadiazol-5-Yl)-3,4-Dihydro-2H-Benzo[B][1,4]Oxazine-7-Sulfonamide]
12 | 350 | O=C1COc2cc(S(=O)(=O)Nc3nccs3)ccc2N1c1ccc(C(F)(F)F)cc1Br [Example 239, 4-(2-Bromo-4-(Trifluoromethyl)Phenyl)-3-Oxo-N-(Thiazol-2-Yl)-3,4-Dihydro-2H-Benzo[B][1,4]Oxazine-7-Sulfonamide]
13 | 11900 | O=C1COc2cc(S(=O)(=O)Nc3nccs3)ccc2N1c1ccc(C(F)(F)F)cc1F [Example 240, 4-(2-Fluoro-4-(Trifluoromethyl)Phenyl)-3-Oxo-N-(Thiazol-2-Yl)-3,4-Dihydro-2H-Benzo[B][1,4]Oxazine-7-Sulfonamide]
14 | 483 | O=C1COc2cc(S(=O)(=O)Nc3nccs3)ccc2N1c1ccc(C(F)(F)F)cc1Cl [Example 241, 4-(2-Chloro-4-(Trifluoromethyl)Phenyl)-3-Oxo-N-(Thiazol-2-Yl)-3,4-Dihydro-2H-Benzo[B][1,4]Oxazine-7-Sulfonamide]
15 | 5820 | CC(O)c1ccccc1N1C(=O)COc2cc(S(=O)(=O)Nc3nccs3)ccc21 (stereo not shown) [Example 242, 4-(2-(1-Hydroxyethyl)Phenyl)-3-Oxo-N-(Thiazol-2-Yl)-3,4-Dihydro-2H-Benzo[B][1,4]Oxazine-7-Sulfonamide]
16 | 5010 | NC(=O)c1ccccc1N1CCOc2cc(S(=O)(=O)Nc3nccs3)ccc21 [Example 244, 2-(7-(N-(Thiazol-2-Yl)Sulfamoyl)-2H-Benzo[B][1,4]Oxazin-4(3H)-Yl)Benzamide]
17 | 615 | COc1cc(F)ccc1N1C(=O)COc2cc(S(=O)(=O)Nc3nccs3)ccc21 [Example 245, 4-(4-Fluoro-2-Methoxyphenyl)-3-Oxo-N-(Thiazol-2-Yl)-3,4-Dihydro-2H-Benzo[B][1,4]Oxazine-7-Sulfonamide]
18 | 540 | COc1ccc(F)cc1N1C(=O)COc2cc(S(=O)(=O)Nc3nccs3)ccc21 [Example 246, 4-(5-Fluoro-2-Methoxyphenyl)-3-Oxo-N-(Thiazol-2-Yl)-3,4-Dihydro-2H-Benzo[B][1,4]Oxazine-7-Sulfonamide]
19 | 403 | Cc1cc(C(F)(F)F)ccc1N1C(=O)COc2cc(S(=O)(=O)Nc3nccs3)ccc21 [Example 247, 4-(2-Methyl-4-(Trifluoromethyl)Phenyl)-3-Oxo-N-(Thiazol-2-Yl)-3,4-Dihydro-2H-Benzo[B][1,4]Oxazine-7-Sulfonamide]
20 | 3670 | O=S(=O)(Nc1nccs1)c1ccc2c(c1)OCCN2c1ccccc1C(O)CO (stereo not shown) [Example 252, 4-(2-(1,2-dihydroxyethyl)phenyl)-N-(thiazol-2-yl)-3,4-dihydro-2H-benzo[b][1,4]oxazine-7-sulfonamide]
21 | 2420 | C=C(C)c1ccccc1N1CCOc2cc(S(=O)(=O)Nc3nccs3)ccc21 [Example 254, 4-(2-(prop-1-en-2-yl)phenyl)-N-(thiazol-2-yl)-3,4-dihydro-2H-benzo[b][1,4]oxazine-7-sulfonamide]
22 | 975 | O=S(=O)(Nc1nccs1)c1ccc2c(c1)OCCN2c1ccccc1-c1ccc(O)nc1 [Example 255, 4-(2-(6-hydroxypyridin-3-yl)phenyl)-N-(thiazol-2-yl)-3,4-dihydro-2H-benzo[b][1,4]oxazine-7-sulfonamide 2,2,2-trifluoroacetate]
23 | 2220 | NC(=O)COc1ccccc1N1CCOc2cc(S(=O)(=O)Nc3nccs3)ccc21 [Example 256, 2-(2-(7-(N-(thiazol-2-yl)sulfamoyl)-2H-benzo[b][1,4]oxazin-4(3H)-yl)phenoxy)acetamide]
24 | 408 | N#CCOc1ccccc1N1CCOc2cc(S(=O)(=O)Nc3nccs3)ccc21 [Example 257, 4-(2-(cyanomethoxy)phenyl)-N-(thiazol-2-yl)-3,4-dihydro-2H-benzo[b][1,4]oxazine-7-sulfonamide]
25 | 1310 | CC(C)(O)c1ccccc1N1CCOc2cc(S(=O)(=O)Nc3nccs3)ccc21 [Example 258, 4-(2-(2-hydroxypropan-2-yl)phenyl)-N-(thiazol-2-yl)-3,4-dihydro-2H-benzo[b][1,4]oxazine-7-sulfonamide]
26 | 1600 | CCc1ccccc1N1CCOc2cc(S(=O)(=O)Nc3nccs3)ccc21 [Example 259, 4-(2-ethylphenyl)-N-(thiazol-2-yl)-3,4-dihydro-2H-benzo[b][1,4]oxazine-7-sulfonamide]
27 | 2260 | O=S(=O)(Nc1nccs1)c1ccc2c(c1)OCCN2c1ccccc1Oc1ccncc1 [Example 260, 4-(2-(pyridin-4-yloxy)phenyl)-N-(thiazol-2-yl)-3,4-dihydro-2H-benzo[b][1,4]oxazine-7-sulfonamide]
28 | 3600 | CC(C)(C#N)Oc1ccccc1N1CCOc2cc(S(=O)(=O)Nc3nccs3)ccc21 [Example 261, 4-(2-((2-cyanopropan-2-yl)oxy)phenyl)-N-(thiazol-2-yl)-3,4-dihydro-2H-benzo[b][1,4]oxazine-7-sulfonamide]
29 | 3350 | O=C1COc2cc(S(=O)(=O)Nc3nccs3)ccc2N1c1ccc(C(F)(F)F)cc1CO [Example 262, 4-(2-(hydroxymethyl)-4-(trifluoromethyl)phenyl)-3-oxo-N-(thiazol-2-yl)-3,4-dihydro-2H-benzo[b][1,4]oxazine-7-sulfonamide]

Row | Compound | IC50 [nM]
30 | COc1cc(C(F)(F)F)ccc1N1CCOc2cc(S(=O)(=O)Nc3nccs3)c(C#N)cc21 [Example 213, 6-Cyano-4-(2-Methoxy-4-(Trifluoromethyl)Phenyl)-N-(Thiazol-2-Yl)-3,4-Dihydro-2H-Benzo[B][1,4]Oxazine-7-Sulfonamide] | 455
31 | COCCOc1ccccc1N1CCOc2cc(S(=O)(=O)Nc3nccs3)ccc21 [Example 229, 4-(2-(2-Methoxyethoxy)Phenyl)-N-(Thiazol-2-Yl)-3,4-Dihydro-2H-Benzo[B][1,4]Oxazine-7-Sulfonamide] | 3160
32 | COc1cc(C#N)ccc1N1C(=O)COc2cc(S(=O)(=O)Nc3nccs3)ccc21 [Example 232, 4-(4-Cyano-2-Methoxyphenyl)-3-Oxo-N-(Thiazol-2-Yl)-3,4-Dihydro-2H-Benzo[B][1,4]Oxazine-7-Sulfonamide] | 2010
33 | N#Cc1cc(Cl)ccc1N1CCOc2cc(S(=O)(=O)Nc3ccncn3)ccc21 [Example 243, 4-(4-Chloro-2-Cyanophenyl)-N-(Pyrimidin-4-Yl)-3,4-Dihydro-2H-Benzo[B][1,4]Oxazine-7-Sulfonamide] | 1880
34 | COc1cc(C(F)(F)F)ccc1N1C(=O)COc2cc(S(=O)(=O)Nc3ncns3)ccc21 [Example 248, 4-(2-Methoxy-4-(Trifluoromethyl)Phenyl)-3-Oxo-N-(1,2,4-Thiadiazol-5-Yl)-3,4-Dihydro-2H-Benzo[B][1,4]Oxazine-7-Sulfonamide] | 175
